This is an account of results in ChEMBL document CHEMBL3286112, “Novel aza-analogous ergoline derived scaffolds as potent serotonin 5-HT₆ and dopamine D₂ receptor ligands” (J Med Chem, 2014).

Activity calls are given as the source filed them. No cut-off for these calls is given here.

Data set [1] has as its target T1, D(2) dopamine receptor (Homo sapiens, UniProt P14416). Kind of data set: Intrinsic activity at human dopamine D2L receptor expressed in CHOK1a cell membrane assessed as [125I]-cAMP accumulation after 20 mins. The data set is classed as functional, cell-based.
The target in data set [2] is T1, D(2) dopamine receptor. Kind of data set: Displacement of [3H]raclopride from human dopamine D2L receptor expressed in CHOK1a cell membrane after 180 mins by scintillation counting analysis. The class given is cell membranes.
Data set [3] concerns the target T2, 5-hydroxytryptamine receptor 2C (Homo sapiens, UniProt P28335).
T2 sequence (P28335 whole entry): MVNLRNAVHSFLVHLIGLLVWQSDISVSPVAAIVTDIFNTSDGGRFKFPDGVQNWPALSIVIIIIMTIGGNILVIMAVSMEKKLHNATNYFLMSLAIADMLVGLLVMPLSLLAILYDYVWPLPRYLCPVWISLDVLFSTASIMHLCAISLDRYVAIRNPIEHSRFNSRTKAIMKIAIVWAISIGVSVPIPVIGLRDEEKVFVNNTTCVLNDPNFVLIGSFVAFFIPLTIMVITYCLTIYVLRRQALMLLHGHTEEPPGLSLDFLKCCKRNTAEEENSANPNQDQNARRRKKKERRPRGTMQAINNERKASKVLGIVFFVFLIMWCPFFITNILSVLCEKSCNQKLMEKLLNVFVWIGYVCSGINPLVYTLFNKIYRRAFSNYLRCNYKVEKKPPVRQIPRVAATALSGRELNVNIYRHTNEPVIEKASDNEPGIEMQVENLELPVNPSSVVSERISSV
In words: Displacement of [3H]5-HT from 5-HT2C receptor (unknown origin) expressed in hamster AV12 cells. The data set is classed as cell-based.

Data set [4] deals with T2, 5-hydroxytryptamine receptor 2C. Kind of data set: Displacement of [3H]mesulergine from human 5-HT2C receptor expressed in human tsA201 cells after 1 hr by scintillation counting analysis. The class given is cell-based.
The target in data set [5] is T3, 5-hydroxytryptamine receptor 6 (Homo sapiens, UniProt P50406). In words: Displacement of [3H]LSD from human 5-HT6 receptor expressed in human HeLa cells after 1 hr by scintillation spectroscopic analysis. The class given is cell-based.
The target in data set [6] is T3, 5-hydroxytryptamine receptor 6. In words: Displacement of [3H]LSD from human 5-HT6 receptor expressed in hamster BHK cells after 60 mins by scintillation counting analysis. The class given is cell-based.
A short description of data set [7]: Clearance in human. The data set is classed as ADME, organism-based. Conditions: in vivo.
For data set [8], the target named is T3, 5-hydroxytryptamine receptor 6. Kind of data set: Antagonist activity at human 5-HT6 receptor expressed in CHO cells assessed as reduction in serotonin-induced cAMP accumulation after 30 mins by HTRF assay. The data set is classed as functional, cell-based.
The test system of data set [9] is tsA201. Kind of data set: Selectivity ratio of Ki for human 5-HT2C receptor expressed in human tsA201 cells to Ki for human 5-HT6 receptor expressed in hamster BHK cells. The class given is cell-based.

T3 sequence (P50406 whole entry): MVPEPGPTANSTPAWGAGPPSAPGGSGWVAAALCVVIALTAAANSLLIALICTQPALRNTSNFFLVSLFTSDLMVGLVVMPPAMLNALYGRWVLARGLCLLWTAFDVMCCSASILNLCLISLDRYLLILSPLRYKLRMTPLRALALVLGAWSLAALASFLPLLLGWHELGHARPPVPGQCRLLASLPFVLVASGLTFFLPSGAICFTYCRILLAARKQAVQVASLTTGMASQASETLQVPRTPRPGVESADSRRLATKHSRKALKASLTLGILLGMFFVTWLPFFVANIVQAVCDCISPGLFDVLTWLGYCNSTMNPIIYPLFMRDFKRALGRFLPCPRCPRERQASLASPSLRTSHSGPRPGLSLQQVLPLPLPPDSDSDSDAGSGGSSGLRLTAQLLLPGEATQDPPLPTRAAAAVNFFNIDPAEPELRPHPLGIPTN
T1 sequence (P14416 whole entry): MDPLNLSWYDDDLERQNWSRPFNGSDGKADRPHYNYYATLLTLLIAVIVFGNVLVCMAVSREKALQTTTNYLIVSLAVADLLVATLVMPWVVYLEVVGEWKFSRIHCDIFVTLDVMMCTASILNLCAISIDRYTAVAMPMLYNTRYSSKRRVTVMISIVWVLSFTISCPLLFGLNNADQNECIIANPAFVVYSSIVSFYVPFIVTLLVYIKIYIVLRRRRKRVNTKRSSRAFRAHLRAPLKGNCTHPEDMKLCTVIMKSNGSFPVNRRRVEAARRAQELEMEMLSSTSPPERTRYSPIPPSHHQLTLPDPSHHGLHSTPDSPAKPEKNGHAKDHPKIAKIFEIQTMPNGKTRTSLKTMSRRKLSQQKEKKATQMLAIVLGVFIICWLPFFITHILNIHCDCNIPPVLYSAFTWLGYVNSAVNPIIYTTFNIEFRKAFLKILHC

On to `c1cc2c3c(c[nH]c3c1)CC1CN(CC3CCCCC3)CCN21` (configuration not stated), for which the Intrinsic activity in [1] is 95. Also, the Ki in data set [2] (read-out: Ki) was determined as 54 nM. `COc1ccc(NS(=O)(=O)c2sc3ccc(Cl)cc3c2C)cc1N1CCNCC1` came in with a Ki in data set [3] of 770 nM. The molecule `O=S(=O)(c1ccccc1Cl)n1cc2c3c(cccc31)N1CCNCC1C2` (configuration not stated) yielded a Ki in [4] of 460 nM. Consider `CNc1cc(NS(=O)(=O)c2ccc(N)cc2)cc(NC)n1`, for which, in [5] (read-out: pKi (converted)), the Ki was 12.3 nM.

For the molecule `Cc1cccc(S(=O)(=O)n2cc3c4c(cccc42)N2CCNCC2C3)c1` (configuration not stated), the values for the Ki in data set [6] and in [4] were 24 nM and 460 nM, respectively. Turning to `CCN1CCN2c3cccc4[nH]cc(c34)CC2C1` (configuration not stated), the Ki in data set [2] (read-out: Ki) is 140 nM. In the case of `O=S(=O)(c1ccccc1)n1cc2c3c(cccc31)N1CCNCC1C2` (configuration not stated), the Ki in data set [6] was 9 nM; in [4], 280 nM. On to `c1ccc(-c2ccccc2CN2CCN3c4cccc5[nH]cc(c45)CC3C2)cc1` (configuration not stated), for which the Ki is 450 nM in data set [2] (read-out: Ki) and 200 nM in [2] (read-out: pKi (converted)). In the case of `CC(C)CCN1CCN2c3cccc4[nH]cc(c34)CC2C1` (configuration not stated), the Intrinsic activity in [1] is 96. For the same molecule, the Ki in data set [2] (read-out: Ki) was 24 nM. Consider `c1ccc(-c2ccc(CN3CCN4c5cccc6[nH]cc(c56)CC4C3)cc2)cc1` (configuration not stated), for which the Ki in data set [2] (read-out: Ki) came to 140 nM. As to `Cc1ccccc1S(=O)(=O)n1cc2c3c(cccc31)N1CCNCC1C2` (configuration not stated), the Ki is 21 nM in data set [6] and 470 nM in data set [4]. Taken in the same sequence, the figures for `COc1cccc(S(=O)(=O)n2cc3c4c(cccc42)N2CCNCC2C3)c1` (configuration not stated) were 24 nM and 370 nM. The molecule `O=S(=O)(c1cccc(F)c1)n1cc2c3c(cccc31)N1CCNCC1C2` (configuration not stated) showed a clearance in [7] of 13.3 mL/min/kg. Also, the outcome in data set [8] was Active. Further, in data set [9], the Ratio Ki stood at 250. The Ki was determined as 0.75 nM in data set [6] and 240 nM in data set [4]. With `O=S(=O)(c1cccc(Cl)c1)n1cc2c3c(cccc31)N1CCNCC1C2` (configuration not stated), the Ki in data set [6] came out at 47 nM; in data set [4] it was 340 nM.

Consider `CN1C[C@@H](NS(=O)(=O)N(C)C)C[C@@H]2c3cccc4c3c(cn4C)C[C@H]21` [MESULERGINE], for which the Ki in data set [5] (read-out: Ki) is 776 nM. In the case of `Cc1ccc(S(=O)(=O)n2cc3c4c(cccc42)N2CCNCC2C3)cc1` (configuration not stated), the figures for the Ki in data set [6] and in data set [4] were 96 nM and 780 nM, respectively. Molecule `Fc1ccc2c(CCNCc3cccc(OCC(F)(F)C(F)F)c3)c[nH]c2c1` [IDALOPIRDINE] came in with a Ki in [3] of 250 nM. In turn, `O=S(=O)(c1ccccc1F)n1cc2c3c(cccc31)N1CCNCC1C2` (configuration not stated) displayed a Ki in data set [4] of 350 nM. With `c1cc2c3c(c[nH]c3c1)CC1CNCCN21` (configuration not stated), in data set [2] (read-out: Ki), the Ki came to 2100 nM.

For `O=S(=O)(c1ccc(F)cc1)n1cc2c3c(cccc31)N1CCNCC1C2` (configuration not stated), the values for the Ki in [6] and in data set [4] were 29 nM and 1100 nM, respectively.

`CN1CCN2c3cccc4[nH]cc(c34)CC2C1` (configuration not stated): in [2] (read-out: Ki), the Ki is 660 nM. With `COc1ccccc1S(=O)(=O)n1cc2c3c(cccc31)N1CCNCC1C2` (configuration not stated), the Ki in data set [6] came to 26 nM; in [4] it was 870 nM. With `CC(C)CN1CCN2c3cccc4[nH]cc(c34)CC2C1` (configuration not stated), the Ki in [2] (read-out: Ki) is 310 nM. In the case of `O=S(=O)(c1ccccc1)c1cnc2c(N3CCNCC3)cccc2c1`, the result in data set [8] was Active.

With `CCCCN1CCN2c3cccc4[nH]cc(c34)CC2C1` (configuration not stated), the Ki in [2] (read-out: Ki) was 110 nM.

In the case of `c1ccc(CN2CCN3c4cccc5[nH]cc(c45)CC3C2)cc1` (configuration not stated), the Intrinsic activity in data set [1] came to 51. Besides, the Ki in data set [2] (read-out: Ki) stood at 130 nM. For `O=S(=O)(c1ccc(Cl)cc1)n1cc2c3c(cccc31)N1CCNCC1C2` (configuration not stated), the Ki in data set [6] stood at 184 nM; in data set [4], 1200 nM. Regarding `CCCN1CCN2c3cccc4[nH]cc(c34)CC2C1` (configuration not stated), the Ki in data set [2] (read-out: Ki) stood at 570 nM. For `COc1ccc(S(=O)(=O)n2cc3c4c(cccc42)N2CCNCC2C3)cc1` (configuration not stated), the Ki was 168 nM in [6] and 2900 nM in data set [4]. With `c1ccc(-c2cccc(CN3CCN4c5cccc6[nH]cc(c56)CC4C3)c2)cc1` (configuration not stated), the clearance in [7] was 65 mL/min/kg. Moreover, the Intrinsic activity in data set [1] was 35. The figures for the Ki in [2] (read-out: Ki) and in [2] (read-out: pKi (converted)) were 0.65 nM and 0.229 nM, respectively.

Take `CCCCCN1CCN2c3cccc4[nH]cc(c34)CC2C1` (configuration not stated): the Ki in data set [2] (read-out: Ki) was found to be 98 nM.
